Values of other authors as cited in US20070037707A1, “Plant growth regulator formulations” (HELENA HOLDING COMPANY, priority 2005, published 2007).

Tests used:
[1] = not given; remark: listed apart in the source
organically grown cotton = conditions: used alone; compared with conventional chemistry like (2-chloroethyl) phosphonic acid

Row | Compound | pH of the pure product (according to the MSDS sheet for a formulated product) | pH range in which stable (at higher pH decomposes and liberates ethylene, Pesticide Manual) | water solubility [1] | effectiveness as cotton defoliant (organically grown cotton)
1 | O=P(O)(O)CCCl [(2-chloroethyl)phosphonic acid] | 1.7 | below 3.5 | water soluble | 
2 | O=C(O)CC(O)(CC(=O)O)C(=O)O [Citric acid] |  |  |  | not as effective
